Results as given in patent EP4748373A1, “PHARMACEUTICAL COMPOSITION CONTAINING HETEROCYCLIC COMPOUND” (Sagimet Biosciences Inc., priority 2023, dated 2025).
In brackets after ≈: the same amount, converted by molar mass. Blank lines part the entries; values can stand above or below the molecule they belong to.

Assay: equilibrium solubility experiments in buffer media at different pH conditions
Format: physicochemical
Details: for solubility at 1 h / solubility at 22 h: buffer media, thermodynamic from solid
Text: Additionally, the present invention conducted equilibrium solubility experiments of the monohydrate crystalline API, amorphous API, and hot-melt extrudate dispersion intermediate in buffer media at different pH conditions. Table 3. Summary of equilibrium solubility (µg/ml) of monohydrate crystalline API, amorphous API, and hot-melt extrudate dispersion intermediate

[1] = pH 1.2, simulated gastric fluid, pH 1.2 buffer
[2] = pH 2, simulated gastric fluid, pH 2.0 buffer
[3] = pH 4, aqueous buffer, pH 4.0 buffer
[4] = pH 4.5, aqueous buffer, pH 4.5 buffer
[5] = pH 5, aqueous buffer, pH 5.0 buffer
[6] = pH 6, aqueous buffer, pH 6.0 buffer
[7] = pH 6.8, aqueous buffer, pH 6.8 buffer
[8] = pH 7.5, aqueous buffer, pH 7.5 buffer

- 1-h solubility (pH 1.2 buffer): 50.93 µg/mL
- 22-h solubility (pH 1.2 buffer): 48.62 µg/mL
- 1-h solubility (pH 2.0 buffer): 4.52 µg/mL
- 22-h solubility (pH 2.0 buffer): 4.45 µg/mL
- 1-h solubility (pH 3.0 buffer): 2.14 µg/mL
- 22-h solubility (pH 3.0 buffer): 2.14 µg/mL
- 1-h solubility (pH 4.0 buffer): 0.76 µg/mL
- 22-h solubility (pH 4.0 buffer): 0.74 µg/mL
- 1-h solubility (pH 4.5 buffer): 0.65 µg/mL
- 22-h solubility (pH 4.5 buffer): 0.57 µg/mL
- 1-h solubility (pH 5.0 buffer): 0.51 µg/mL
- 22-h solubility (pH 5.0 buffer): 0.42 µg/mL
- 1-h solubility (pH 6.0 buffer): 0.46 µg/mL
- 22-h solubility (pH 6.0 buffer): 0.44 µg/mL
- 1-h solubility (pH 6.8 buffer): 0.46 µg/mL
- 22-h solubility (pH 6.8 buffer): 0.45 µg/mL
- 1-h solubility (pH 7.5 buffer): 0.54 µg/mL
- 22-h solubility (pH 7.5 buffer): 0.48 µg/mL
Compound: Cc1nnc(-c2cc(C(=O)N3CCC(c4ccc(C#N)cc4)CC3)c(C)cc2C2CCC2)[nH]1 [Compound of formula (I) (amorphous API), 4-[1-[4-cyclobutyl-2-methyl-5-(5-methyl-1H-1,2,4-triazol-3-yl)benzoyl]piperidin-4-yl]benzonitrile]

- 22-h solubility (pH 3.0 buffer): 0.97 µg/mL
Compound: Cc1nnc(-c2cc(C(=O)N3CCC(c4ccc(C#N)cc4)CC3)c(C)cc2C2CCC2)[nH]1 [Compound of formula (I) (monohydrate crystalline form)] [4-[1-[4-cyclobutyl-2-methyl-5-(5-methyl-1H-1,2,4-triazol-3-yl)benzoyl]piperidin-4-yl]benzonitrile]

- solubility at 1 h [1]: 30.3 µg/mL (≈ 68.9 µM)
- solubility at 22 h [1]: 27.2 µg/mL (≈ 61.8 µM)
- solubility at 1 h [2]: 3.57 µg/mL (≈ 8.12 µM)
- solubility at 22 h [2]: 3.22 µg/mL (≈ 7.33 µM)
- solubility at 1 h (pH 3, aqueous buffer, pH 3.0 buffer): 1.07 µg/mL (≈ 2.43 µM)
- solubility at 1 h [3]: 0.68 µg/mL (≈ 1.55 µM)
- solubility at 22 h [3]: 0.6 µg/mL (≈ 1.36 µM)
- solubility at 1 h [4]: 0.6 µg/mL (≈ 1.36 µM)
- solubility at 22 h [4]: 0.59 µg/mL (≈ 1.34 µM)
- solubility at 1 h [5]: 0.47 µg/mL (≈ 1.07 µM)
- solubility at 22 h [5]: 0.51 µg/mL (≈ 1.16 µM)
- solubility at 1 h [6]: 0.5 µg/mL (≈ 1.14 µM)
- solubility at 22 h [6]: 0.45 µg/mL (≈ 1.02 µM)
- solubility at 1 h [7]: 0.44 µg/mL (≈ 1 µM)
- solubility at 22 h [7]: 0.42 µg/mL (≈ 0.955 µM)
- solubility at 1 h [8]: 0.42 µg/mL (≈ 0.955 µM)
- solubility at 22 h [8]: 0.43 µg/mL (≈ 0.978 µM)
Compound: Cc1nnc(-c2cc(C(=O)N3CCC(c4ccc(C#N)cc4)CC3)c(C)cc2C2CCC2)[nH]1 [4-[1-[4-cyclobutyl-2-methyl-5-(5-methyl-1H-1,2,4-triazol-3-yl)benzoyl]piperidin-4-yl]benzonitrile]
